Assay results as given in patent EP4417602A1, “SUBSTITUTED PYRAZOLE CARBOXAMIDES, SALTS THEREOF AND THEIR USE AS HERBICIDALLY ACTIVE SUBSTANCES” (Bayer AG, priority 2023, dated 2024).

system: MATIN; test: A. Herbicidal pre-emergence action on harmful plants (Tables A); assay type: in vivo, Matricaria inodora; details: application rate 1280 g/ha; visual grading after ca. 3 weeks vs untreated controls; 100% = plants have died off, 0% = as control plants
Method in brief: (§1)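 Values are visual percent damage relative to untreated controls, scored ca. 3 weeks after the compound was sprayed on the covering soil of sown pots (sandy loam) at rates up to 1280 g/ha, formulated as WP or EC with 0.5% additive.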

| Compound | pre-emergence activity against MATIN [%] |
| --- | --- |
| COCc1c(C(=O)N2CCCC2Cc2ccccc2Cl)cnn1C (racemic) [Example I-170] | 90 |
| COCc1c(C(=O)N2CCCC2Cc2ccccc2F)cnn1C (single isomer, unassigned) [Example I-157] | 90 |

system: STEME; test: as above; assay type: in vivo, Stellaria media; details: application rate 320 g/ha; visual grading after ca. 3 weeks vs untreated controls; 100% = plants have died off, 0% = as control plants
Method in brief: as §1

| Compound | pre-emergence activity against STEME [%] |
| --- | --- |
| COCc1c(C(=O)N2CCCC2Cc2ccccc2F)cnn1C (single isomer, unassigned) [Example I-157] | 90 |

same assay, conditions: application rate 1280 g/ha; visual grading after ca. 3 weeks vs untreated controls; 100% = plants have died off, 0% = as control plants

| Compound | pre-emergence activity against STEME [%] |
| --- | --- |
| COCc1c(C(=O)N2CCCC2Cc2ccccc2F)cnn1C (single isomer, unassigned) [Example I-157] | 100 |

system: ZEAMX; test: F. Post-emergence effects on crop plants (Tables F); assay type: in vivo, Zea mays; details: application rate 80 g/ha, crop plant
Method in brief: (§2)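 Plants were grown in sandy loam in a greenhouse and sprayed post-emergence at the single-leaf stage, 2–3 weeks after sowing. Visual damage was scored after ca. 3 weeks against untreated controls (0% = as control, 100% = dead).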

| Compound | post-emergence activity against ZEAMX in % [%] |
| --- | --- |
| COCc1c(C(=O)N2CCCC2Cc2ccccc2Cl)cnn1C (racemic) [Example I-170] | 0 |
| COCc1c(C(=O)N2CCCC2Cc2ccccc2F)cnn1C (single isomer, unassigned) [Example I-157] | 0 |

same assay, conditions: application rate 320 g/ha, crop plant

| Compound | post-emergence activity against ZEAMX in % [%] |
| --- | --- |
| COCc1c(C(=O)N2CCCC2Cc2ccccc2F)cnn1C (single isomer, unassigned) [Example I-157] | 0 |

system: LOLRI; test: C. Herbicidal pre-emergence action, weed and crop plants (Tables C); assay type: in vivo, Lolium rigidum; details: application rate 320 g/ha; Table C7a
Excerpt: (§3) Seeds of mono- and dicotyledonous weed plants and crop plants were sown, in plastic or organic planting pots, in sandy loam and covered with soil. The compounds according to the invention, formulated in the form of wettable powders (WP) or as emulsifiable concentrates (EC), were applied to the surface of the covering soil as aqueous suspension or emulsion, with the addition of 0.5% of an additive, at an application rate of 6001 of water/ha (converted). Following treatment, the pots were placed in a greenhouse and kept under optimum growth conditions for the test plants. The visual grading of the damage to the test plants was carried out after ca. 3 weeks in comparison to untreated controls (herbicidal effect in percent (%): 100% effect = plants have died off, 0% effect = as control plants). Tables C1 to C12 below show the effects of selected compounds of the general formula (I) according to table 1 on various harmful plants and an application rate corresponding to 320 g/ha or below obtained by the experimental procedure mentioned above. Table C1: pre-emergence activity at 320g/ha against KCHSC in %

| Compound | pre-emergence activity against LOLRI [%] |
| --- | --- |
| COCc1c(C(=O)N2CCCC2Cc2ccccc2Cl)cnn1C (racemic) [Example I-170] | 90 |
| COCc1c(C(=O)N2CCCC2Cc2ccccc2F)cnn1C (single isomer, unassigned) [Example I-157] | 90 |

system: POAAN; test: A. Herbicidal pre-emergence action on harmful plants (Tables A); assay type: in vivo, Poa annua; details: application rate 80 g/ha; Table A7c
Method in brief: as §1

| Compound | pre-emergence activity against POAAN [%] |
| --- | --- |
| COCc1c(C(=O)N2CCCC2Cc2ccccc2Cl)cnn1C (racemic) [Example I-170] | 100 |
| COCc1c(C(=O)N2CCCC2Cc2ccccc2F)cnn1C (single isomer, unassigned) [Example I-157] | 100 |

same assay, conditions: application rate 320 g/ha; Table A7b

| Compound | pre-emergence activity against POAAN [%] |
| --- | --- |
| COCc1c(C(=O)N2CCCC2Cc2ccccc2Cl)cnn1C (racemic) [Example I-170] | 100 |
| COCc1c(C(=O)N2CCCC2Cc2ccccc2F)cnn1C (single isomer, unassigned) [Example I-157] | 100 |

same assay, conditions: application rate 1280 g/ha; visual grading after ca. 3 weeks vs untreated controls; 100% = plants have died off, 0% = as control plants

| Compound | pre-emergence activity against POAAN [%] |
| --- | --- |
| COCc1c(C(=O)N2CCCC2Cc2ccccc2Cl)cnn1C (racemic) [Example I-170] | 100 |
| COCc1c(C(=O)N2CCCC2Cc2ccccc2F)cnn1C (single isomer, unassigned) [Example I-157] | 100 |

system: DIGSA; test: as above; assay type: in vivo, Digitaria sanguinalis; details: application rate 80 g/ha; Table A12c
Method in brief: as §1

| Compound | pre-emergence activity against DIGSA [%] |
| --- | --- |
| COCc1c(C(=O)N2CCCC2Cc2ccccc2F)cnn1C (single isomer, unassigned) [Example I-157] | 100 |

same assay, conditions: application rate 320 g/ha; Table A12b

| Compound | pre-emergence activity against DIGSA [%] |
| --- | --- |
| COCc1c(C(=O)N2CCCC2Cc2ccccc2F)cnn1C (single isomer, unassigned) [Example I-157] | 100 |

same assay, conditions: application rate 1280 g/ha; Table A12a

| Compound | pre-emergence activity against DIGSA [%] |
| --- | --- |
| COCc1c(C(=O)N2CCCC2Cc2ccccc2F)cnn1C (single isomer, unassigned) [Example I-157] | 100 |

system: GLXMA; test: D. Pre-emergence effects on crop plants (Tables D); assay type: in vivo, Glycine max; details: crop plant; application rate 320 g/ha; Table D4a
Method in brief: (§4)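 Seeds sown in sandy loam and covered; WP or EC formulations sprayed onto the soil surface as aqueous suspension/emulsion with 0.5% additive, at 320 g/ha or below. Greenhouse-grown; visual damage scored after ca. 3 weeks against untreated controls (0% = as control, 100% = plants dead).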

| Compound | pre-emergence activity against GLXMA [%] |
| --- | --- |
| COCc1c(C(=O)N2CCCC2Cc2ccccc2Cl)cnn1C (racemic) [Example I-170] | 0 |
| COCc1c(C(=O)N2CCCC2Cc2ccccc2F)cnn1C (single isomer, unassigned) [Example I-157] | 0 |

system: ECHCG; test: A. Herbicidal pre-emergence action on harmful plants (Tables A); assay type: in vivo, Echinochloa crus-galli; details: application rate 80 g/ha; visual grading after ca. 3 weeks vs untreated controls; 100% = plants have died off, 0% = as control plants
Method in brief: as §1

| Compound | pre-emergence activity against ECHCG [%] |
| --- | --- |
| COCc1c(C(=O)N2CCCC2Cc2ccccc2Cl)cnn1C (racemic) [Example I-170] | 90 |
| COCc1c(C(=O)N2CCCC2Cc2ccccc2F)cnn1C (single isomer, unassigned) [Example I-157] | 100 |

same assay, conditions: application rate 320 g/ha; visual grading after ca. 3 weeks vs untreated controls; 100% = plants have died off, 0% = as control plants

| Compound | pre-emergence activity against ECHCG [%] |
| --- | --- |
| COCc1c(C(=O)N2CCCC2Cc2ccccc2Cl)cnn1C (racemic) [Example I-170] | 90 |
| COCc1c(C(=O)N2CCCC2Cc2ccccc2F)cnn1C (single isomer, unassigned) [Example I-157] | 100 |

same assay, conditions: application rate 1280 g/ha; visual grading after ca. 3 weeks vs untreated controls; 100% = plants have died off, 0% = as control plants

| Compound | pre-emergence activity against ECHCG [%] |
| --- | --- |
| COCc1c(C(=O)N2CCCC2Cc2ccccc2Cl)cnn1C (racemic) [Example I-170] | 90 |
| COCc1c(C(=O)N2CCCC2Cc2ccccc2F)cnn1C (single isomer, unassigned) [Example I-157] | 100 |

system: GLXMA; test: F. Post-emergence effects on crop plants (Tables F); assay type: in vivo, Glycine max; details: application rate 80 g/ha, crop plant
Method in brief: as §2

| Compound | post-emergence activity against GLXMA in % [%] |
| --- | --- |
| COCc1c(C(=O)N2CCCC2Cc2ccccc2Cl)cnn1C (racemic) [Example I-170] | 10 |

same assay, conditions: application rate 320 g/ha, crop plant

| Compound | post-emergence activity against GLXMA in % [%] |
| --- | --- |
| COCc1c(C(=O)N2CCCC2Cc2ccccc2F)cnn1C (single isomer, unassigned) [Example I-157] | 0 |

system: DIGSA; test: C. Herbicidal pre-emergence action, weed and crop plants (Tables C); assay type: in vivo, Digitaria sanguinalis; details: application rate 320 g/ha; Table C5a
Excerpt: as §3

| Compound | pre-emergence activity against DIGSA [%] |
| --- | --- |
| COCc1c(C(=O)N2CCCC2Cc2ccccc2F)cnn1C (single isomer, unassigned) [Example I-157] | 90 |

system: BRSNW; test: D. Pre-emergence effects on crop plants (Tables D); assay type: in vivo, Brassica napus; details: application rate 80 g/ha, crop plant
Method in brief: as §4

| Compound | pre-emergence activity against BRSNW in % [%] |
| --- | --- |
| COCc1c(C(=O)N2CCCC2Cc2ccccc2Cl)cnn1C (racemic) [Example I-170] | 0 |
| COCc1c(C(=O)N2CCCC2Cc2ccccc2F)cnn1C (single isomer, unassigned) [Example I-157] | 0 |

same assay, conditions: application rate 320 g/ha, crop plant

| Compound | pre-emergence activity against BRSNW in % [%] |
| --- | --- |
| COCc1c(C(=O)N2CCCC2Cc2ccccc2Cl)cnn1C (racemic) [Example I-170] | 0 |
| COCc1c(C(=O)N2CCCC2Cc2ccccc2F)cnn1C (single isomer, unassigned) [Example I-157] | 0 |

system: ECHCG; test: C. Herbicidal pre-emergence action, weed and crop plants (Tables C); assay type: in vivo, Echinochloa crus-galli; details: application rate 80 g/ha; Table C6b
Excerpt: as §3

| Compound | pre-emergence activity against ECHCG [%] |
| --- | --- |
| COCc1c(C(=O)N2CCCC2Cc2ccccc2Cl)cnn1C (racemic) [Example I-170] | 90 |

same assay, conditions: application rate 320 g/ha; Table C6a

| Compound | pre-emergence activity against ECHCG [%] |
| --- | --- |
| COCc1c(C(=O)N2CCCC2Cc2ccccc2Cl)cnn1C (racemic) [Example I-170] | 90 |
| COCc1c(C(=O)N2CCCC2Cc2ccccc2F)cnn1C (single isomer, unassigned) [Example I-157] | 80 |

system: TRZAS; test: F. Post-emergence effects on crop plants (Tables F); assay type: in vivo, Triticum aestivum; details: application rate 80 g/ha, crop plant
Method in brief: as §2

| Compound | post-emergence activity against TRZAS in % [%] |
| --- | --- |
| COCc1c(C(=O)N2CCCC2Cc2ccccc2Cl)cnn1C (racemic) [Example I-170] | 20 |
| COCc1c(C(=O)N2CCCC2Cc2ccccc2F)cnn1C (single isomer, unassigned) [Example I-157] | 0 |

same assay, conditions: application rate 320 g/ha, crop plant

| Compound | post-emergence activity against TRZAS in % [%] |
| --- | --- |
| COCc1c(C(=O)N2CCCC2Cc2ccccc2F)cnn1C (single isomer, unassigned) [Example I-157] | 20 |
